Each structure is given as a SMILES string.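 1) Cells in 96-well plates. 2) Compound, 48 h, 5 concentrations. 3) Linear interpolation between surrounding doses. 4) Unreached endpoint = highest concentration. The concentration for 50% growth inhibition is given as GI50. TGI: total growth inhibition.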

Some test systems named below: CAKI-1 renal; LXFL 529 NSCLC; M19-MEL melanoma; OVCAR-5 ovarian; SR leukemia; HL-60(TB) leukemia; SK-MEL-5 melanoma; UACC-62 melanoma.
Common to all, as to test: NCI anticancer screen, dose series, 48 h

In the case of `O=c1[nH]c(-c2ccccc2)nc2ccc(Cl)cc12`, the TGI in the test with CAKI-1 renal, in the test with LXFL 529 NSCLC, in the test with M19-MEL melanoma, in the test on OVCAR-5 ovarian and with SR leukemia was above 100 µM in each case.

With `O=C(O)CNS(=O)(=O)c1ccc(NC(=O)c2ccc(F)cc2)cc1`, the TGI with CAKI-1 renal, in the test with HL-60(TB) leukemia, in the test on LXFL 529 NSCLC, in the test on M19-MEL melanoma, in the test with OVCAR-5 ovarian and in the test on SK-MEL-5 melanoma was above 100 µM each time. This compound came in with a TGI with UACC-62 melanoma above 100 µM.

Turning to `O=C1O[C@H](C(Cl)(Cl)Cl)N2CCCC12` (stereo partly specified), the TGI with CAKI-1 renal, in the test on HL-60(TB) leukemia, with LXFL 529 NSCLC, with M19-MEL melanoma, in the test on OVCAR-5 ovarian and in the test on SK-MEL-5 melanoma was above 100 µM in each case. Besides, the TGI in the test on UACC-62 melanoma was above 100 µM.

Turning to `Cn1ccnc1C(c1nccn1C)C(C)(C)[N+](=O)[O-]`, the TGI was above 100 µM with CAKI-1 renal; above 100 µM in the test on HL-60(TB) leukemia; above 100 µM in the test on M19-MEL melanoma; above 100 µM in the test with SK-MEL-5 melanoma; above 100 µM with SR leukemia; 56.6 µM in the test on UACC-62 melanoma.

For `C=CCC12CCC(=O)C=C1CCC1(C2)OCCO1` (stereo unspecified), the TGI in the test on CAKI-1 renal, in the test with HL-60(TB) leukemia, in the test with LXFL 529 NSCLC, in the test on M19-MEL melanoma, in the test with SK-MEL-5 melanoma and in the test on SR leukemia was above 100 µM throughout. In the test with UACC-62 melanoma, this compound returned a TGI above 100 µM.

In the case of `NC1CCCCC1N.O=C([O-])P(=O)([O-])[O-].[Na+].[Pt+4]` (stereo unspecified), the GI50 in the test with HL-60(TB) leukemia was 75.9 µM; with LXFL 529 NSCLC, above 100 µM; with M19-MEL melanoma, 85.1 µM; in the test on OVCAR-5 ovarian, above 100 µM; in the test with UACC-62 melanoma it was above 100 µM. Also, the TGI in the test on HL-60(TB) leukemia, in the test with LXFL 529 NSCLC, in the test on M19-MEL melanoma, with OVCAR-5 ovarian and in the test with UACC-62 melanoma was above 100 µM throughout.

Consider `COc1ccccc1/C=C1\CCC(CNc2ccc(Cl)cc2)C1=O` (stereo unspecified), for which the TGI stood at 13.6 µM in the test with CAKI-1 renal; 13.9 µM in the test with HL-60(TB) leukemia; 13.7 µM in the test with LXFL 529 NSCLC; 33.1 µM with M19-MEL melanoma; 23.6 µM with OVCAR-5 ovarian; 18.4 µM in the test with SK-MEL-5 melanoma. For the same compound, the TGI with SR leukemia came out at 26.5 µM; with UACC-62 melanoma, 3.48 µM.

`CC1=C(C)CC2(SC1)C(=O)c1ccccc1C2=O`: the TGI with CAKI-1 renal, with HL-60(TB) leukemia, with LXFL 529 NSCLC, with M19-MEL melanoma, in the test on OVCAR-5 ovarian and in the test with SK-MEL-5 melanoma was above 100 µM throughout. Moreover, the TGI in the test with SR leukemia and with UACC-62 melanoma was above 100 µM throughout.

On to `Cc1ccc(C(=O)O/N=C2/CCCCC2CN(C)C)cc1` (stereo unspecified), for which the TGI in the test on CAKI-1 renal, with HL-60(TB) leukemia, in the test on LXFL 529 NSCLC, with M19-MEL melanoma, in the test with OVCAR-5 ovarian and with SK-MEL-5 melanoma was above 100 µM in each case. For the same compound, the TGI in the test with SR leukemia and in the test on UACC-62 melanoma was above 100 µM in each case.

For the compound `O=C1CCC2CCc3cccc4oc1c2c34` (stereo unspecified), the TGI with CAKI-1 renal, in the test with HL-60(TB) leukemia, in the test on LXFL 529 NSCLC, in the test with M19-MEL melanoma, in the test on SK-MEL-5 melanoma and with UACC-62 melanoma was above 100 µM in each case.

As to `Oc1ccc2occ3c2c1CCC3`, the TGI with CAKI-1 renal, with HL-60(TB) leukemia, in the test on LXFL 529 NSCLC, with M19-MEL melanoma, in the test on SK-MEL-5 melanoma and in the test with UACC-62 melanoma was above 100 µM each time.

Turning to `CN(C)c1ccc(/C=C/C(=O)C(C)(C)C)cc1Br`, the TGI was 91.9 µM in the test on CAKI-1 renal; 92.4 µM in the test on LXFL 529 NSCLC; 50.9 µM in the test on M19-MEL melanoma; above 100 µM with OVCAR-5 ovarian; 35.5 µM in the test with SK-MEL-5 melanoma; 34.2 µM in the test on UACC-62 melanoma.

Regarding `O=S(=O)([O-])[O-].[Cl-].[NH2-].[NH2-].[NH2-].[NH2-].[Ru+3].c1ccc(-c2cccnc2)cc1`, the GI50 in the test with CAKI-1 renal, in the test on HL-60(TB) leukemia, in the test with LXFL 529 NSCLC, with OVCAR-5 ovarian, with SK-MEL-5 melanoma and with SR leukemia was above 100 µM throughout. In the test on UACC-62 melanoma, the GI50 is above 100 µM. The TGI with CAKI-1 renal, with HL-60(TB) leukemia, in the test with LXFL 529 NSCLC, in the test with OVCAR-5 ovarian, in the test on SK-MEL-5 melanoma and in the test with SR leukemia was above 100 µM in each case. In the test on UACC-62 melanoma, this compound gave a TGI above 100 µM.

As to `COc1cc(N=Nc2ccccc2)cc(/C=N\[N-]C(N)=S)c1[O-].COc1cc(N=Nc2ccccc2)cc(/C=N\[N-]C(N)=S)c1[O-].[Fe+4]`, the GI50 was 12.6 µM in the test with HL-60(TB) leukemia; 13.7 µM in the test on LXFL 529 NSCLC; 16.8 µM in the test on M19-MEL melanoma; 13.5 µM with SK-MEL-5 melanoma; 0.378 µM in the test with UACC-62 melanoma. Also, the TGI in the test with HL-60(TB) leukemia is above 100 µM; in the test with LXFL 529 NSCLC, above 100 µM; in the test with M19-MEL melanoma, 75.9 µM; in the test on SK-MEL-5 melanoma, 49 µM; in the test with UACC-62 melanoma, above 100 µM.

On to `CCN(CC)c1ccc(N=C2C=CC(=O)c3ncccc32)c(C)c1`, for which the TGI came to 23.4 µM in the test with CAKI-1 renal; 5.15 µM with HL-60(TB) leukemia; 8.67 µM with LXFL 529 NSCLC; 22.6 µM in the test on M19-MEL melanoma; 24.4 µM with OVCAR-5 ovarian; 18.4 µM in the test on SK-MEL-5 melanoma. Besides, the TGI was found to be 6.51 µM in the test on SR leukemia and 16.8 µM in the test on UACC-62 melanoma.

Turning to `COc1ccc(S(=O)(=O)N/N=C/CN2C(=O)c3ccccc3C2=O)cc1OC`, the TGI in the test with CAKI-1 renal, with HL-60(TB) leukemia, in the test on LXFL 529 NSCLC, in the test on M19-MEL melanoma, in the test on SK-MEL-5 melanoma and in the test with SR leukemia was above 100 µM in each case. The compound further yielded a TGI with UACC-62 melanoma above 100 µM.

In the case of `CC(C)COC(=O)N1N=NC2C3OC(CC3=O)C21` (stereo unspecified), the TGI in the test on CAKI-1 renal, in the test on HL-60(TB) leukemia, in the test on LXFL 529 NSCLC, in the test on M19-MEL melanoma, with OVCAR-5 ovarian and in the test with SK-MEL-5 melanoma was above 100 µM in each case. Moreover, the TGI in the test with SR leukemia and with UACC-62 melanoma was above 100 µM each time.
